# pIC50: −log10 of the molar value.
# Target: T1, α4β1 integrin (Homo sapiens, UniProt P05556+P13612)
# T1 construct: endogenous in cells; host or cells: Ramos cells
# Assay: Inhibition of adhesion of calcein AM-labeled Ramos cells to CS1 (fibronectin) peptide-conjugated ovalbumin
# Assay type: cell-based
# Details: for pIC50: Ramos cell adhesion to CS1-conjugated ovalbumin, 30 minutes at 37° C.
# Protocol: The ability of compounds of the present invention to inhibit binding is determined by a procedure in which a 26-amino acid peptide containing the CS1 sequence of fibronectin with an N-terminal Cys ([…]) was coupled to maleimide activated ovalbumin. Bovine serum albumin (BSA) and CS1 conjugated ovalbumin were coated onto 96-well polystyrene plates at 0.5 mg/ml in TBS (50 mM Tris, pH 7.5; 150 mM NaCl) at 4° C. for 16 hours. The plates were washed three times with TBS and blocked with TBS containing 3% BSA at room temperature for 4 hours. Blocked plates were washed three times in binding buffer (TBS; 1 mM MgCl2; 1 mM CaCl2; 1 mM MnCl2) prior to assay. Ramos cells fluorescently labeled with calcein AM were resuspended in binding buffer (10^7 cells/ml) and diluted 1:2 with same buffer with or without compound. The cells were added immediately to the wells (2.5×10^5 cells/well) and incubated for 30 minutes at 37° C. Following three washes with binding buffer, adherent cells were lysed and quantitated using a fluorometer. IC50 is defined as the dose required to give 50% inhibition. MS in Table 3 stands for Mass Spec. nd stands for not determined in the Tables. A stands for inhibition in Table 2, and the percent inhibition indicates the inhibition of cell adhesion when compound is included in the assay at a concentration of 100 μM. The lower the IC50 value and the greater the percentage of inhibition, the more efficient the compound is at prevention of cell adhesion.
# T1 sequence (P13612 34-1032): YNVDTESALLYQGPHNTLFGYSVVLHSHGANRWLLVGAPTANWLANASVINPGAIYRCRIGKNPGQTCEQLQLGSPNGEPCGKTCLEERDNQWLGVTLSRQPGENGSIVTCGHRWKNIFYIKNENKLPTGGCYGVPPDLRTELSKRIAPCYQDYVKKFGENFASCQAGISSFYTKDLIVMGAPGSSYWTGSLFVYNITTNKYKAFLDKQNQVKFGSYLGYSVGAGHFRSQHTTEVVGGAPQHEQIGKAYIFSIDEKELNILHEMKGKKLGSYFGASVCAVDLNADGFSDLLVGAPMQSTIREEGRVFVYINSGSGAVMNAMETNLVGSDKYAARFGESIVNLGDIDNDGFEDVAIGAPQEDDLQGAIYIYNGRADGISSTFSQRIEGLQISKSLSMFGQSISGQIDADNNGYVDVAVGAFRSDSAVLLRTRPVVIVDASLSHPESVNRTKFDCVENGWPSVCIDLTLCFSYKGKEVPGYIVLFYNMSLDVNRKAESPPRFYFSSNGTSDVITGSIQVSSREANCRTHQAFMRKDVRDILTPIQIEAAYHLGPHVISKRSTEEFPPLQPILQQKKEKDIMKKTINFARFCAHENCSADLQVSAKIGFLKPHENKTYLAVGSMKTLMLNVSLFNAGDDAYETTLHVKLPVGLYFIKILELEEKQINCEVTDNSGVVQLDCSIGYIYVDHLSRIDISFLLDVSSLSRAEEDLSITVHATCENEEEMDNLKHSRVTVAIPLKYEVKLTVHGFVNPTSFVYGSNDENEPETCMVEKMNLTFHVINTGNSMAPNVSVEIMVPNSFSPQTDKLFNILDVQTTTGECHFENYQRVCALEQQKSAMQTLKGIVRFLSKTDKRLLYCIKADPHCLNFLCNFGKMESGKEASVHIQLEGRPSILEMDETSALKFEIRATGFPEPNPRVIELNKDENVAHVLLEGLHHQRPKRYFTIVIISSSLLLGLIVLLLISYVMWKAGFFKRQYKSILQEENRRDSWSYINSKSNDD
# T1 sequence (P05556 21-798): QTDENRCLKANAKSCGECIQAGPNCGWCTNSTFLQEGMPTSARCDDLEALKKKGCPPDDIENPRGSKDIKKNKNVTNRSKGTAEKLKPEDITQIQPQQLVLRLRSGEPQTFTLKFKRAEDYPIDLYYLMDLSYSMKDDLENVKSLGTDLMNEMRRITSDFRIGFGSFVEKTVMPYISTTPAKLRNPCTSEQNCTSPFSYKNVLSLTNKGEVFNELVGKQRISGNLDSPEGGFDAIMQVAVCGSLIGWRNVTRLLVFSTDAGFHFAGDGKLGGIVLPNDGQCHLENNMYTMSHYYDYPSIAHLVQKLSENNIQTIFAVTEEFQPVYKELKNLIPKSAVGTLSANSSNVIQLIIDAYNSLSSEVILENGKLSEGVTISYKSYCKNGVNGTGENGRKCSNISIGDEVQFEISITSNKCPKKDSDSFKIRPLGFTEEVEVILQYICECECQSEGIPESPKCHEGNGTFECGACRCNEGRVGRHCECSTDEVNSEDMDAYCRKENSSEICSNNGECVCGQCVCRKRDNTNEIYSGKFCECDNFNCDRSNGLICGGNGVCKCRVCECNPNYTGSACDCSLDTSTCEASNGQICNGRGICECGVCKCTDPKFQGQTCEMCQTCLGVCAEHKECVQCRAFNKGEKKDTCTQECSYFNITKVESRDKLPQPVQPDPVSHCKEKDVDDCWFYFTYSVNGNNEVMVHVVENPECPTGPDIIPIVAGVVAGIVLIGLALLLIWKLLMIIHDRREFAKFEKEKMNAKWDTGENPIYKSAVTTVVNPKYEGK
Structure (SMILES),pIC50 (Table 4),also measured
"O=C(O)C[C@H](NC(=O)Cn1cccc(Cc2ccccc2)c1=O)c1ccc2c(c1)OCO2 [(3S)-3-(1,3-benzodioxol-5-yl)-3-({2-[2-oxo-3-(phenylmethyl)-1(2H)-pyridinyl]acetyl}amino)propanoic acid]",,pIC50 (Table 3): 6.35
CCCCC(C(=O)N[C@@H](CC(=O)O)c1cccc(OC(C)C)c1)n1cc(C)cc(Cc2cccc(Cl)c2)c1=O (stereo partly drawn) [(3S)-3-({2-[3-(3-chlorobenzyl)-5-methyl-2-oxopyridin-1(2H)-yl]hexanoyl}amino)-3-(3-isopropoxyphenyl)propanoic acid],7.70,
CCCCC(C(=O)N[C@@H](Cc1ccccc1)C(=O)O)n1cc(C)cc(Cc2ccccc2)c1=O (stereo partly drawn) [(2S)-2-({2-[5-methyl-2-oxo-3-phenylmethyl)-1(2H)-pyridinyl]hexanoyl}amino)-3-phenylpropanoic acid],< 5.00,
CCCCC(C(=O)N[C@@H](CC(=O)O)c1cccc(OCCC)c1)n1cc(C)cc(Cc2ccccc2)c1=O (stereo partly drawn) [(3S)-3-{[2-(3-benzyl-5-methyl-2-oxopyridin-1(2H)-yl)hexanoyl]amino}-3-(3-propoxyphenyl)propanoic acid],8.00,
CCCCC(C(=O)N[C@@H](CC(=O)O)c1cccc(OC(F)(F)F)c1)n1cc(C)cc(Cc2ccccc2)c1=O (stereo partly drawn) [(3S)-3-{[2-(3-benzyl-5-methyl-2-oxopyridin-1(2H)-yl)hexanoyl]amino}-3-[3-(trifluoromethoxy)phenyl]propanoic acid],7.40,
"CCCCC(C(=O)N[C@@H](CC(=O)O)c1ccc(-c2ccc(C)cc2)cc1)n1cc(C)cc(Cc2ccccc2)c1=O (stereo partly drawn) [(3S)-3-{[2-(3-benzyl-5-methyl-2-oxopyridin-1(2H)-yl)hexanoyl]amino}-3-(4′-methyl-1,1′-biphenyl-4-yl)propanoic acid]",6.60,
CCCCC(C(=O)N[C@@H](CC(=O)O)c1ccc(C(C)C)cc1)n1cc(C)cc(Cc2ccccc2)c1=O (stereo partly drawn) [(3S)-3-[4-(1-methylethyl)phenyl]-3-({2-[5-methyl-2-oxo-3-(phenylmethyl)-1(2H)-pyridinyl]hexanoyl}amino)propanoic acid],6.80,
"CCCCC(C(=O)N[C@@H](CC(=O)O)c1ccc2c(c1)OCO2)n1c(=O)n(Cc2ccccc2)c2ccccc21 (stereo partly drawn) [(3S)-3-(1,3-benzodioxol-5-yl)-3-({2-[2-oxo-3-(phenylmethyl)-2,3-dihydro-1H-benzimidazol-1-yl]hexanoyl}amino)propanoic acid]",,pIC50 (Table 3): 7.15
"CCCC[C@@H](C(=O)N[C@@H](CC(=O)O)c1ccc2c(c1)OCO2)n1cccc(C(=O)c2ccccc2)c1=O [(3S)-3-(1,3-benzodioxol-5-yl)-3-({(2S)-2-[2-oxo-3-(phenylcarbonyl)-1(2H)-pyridinyl]hexanoyl}amino)propanoic acid]",,pIC50 (Table 3): 6.26
"CCCCC(C(=O)N[C@@H](CC(=O)O)c1ccc2c(c1)OCO2)n1cc(C)cc(Cc2ccc(C)cc2)c1=O (mixture of isomers) [Compound 16, (3S)-3-(1,3-benzodioxol-5-yl)-3-((2R,S)-2-(3-(4-methylbenzyl)-5-methyl-2-oxo-1(2H)-pyridinyl)hexanoylamino)propanoic acid]",,pIC50 (Table 1): 7.46
"CCCCC(C(=O)N[C@@H](CC(=O)O)c1cc(C)cc(C)c1)n1cc(C)cc(Cc2ccccc2)c1=O (stereo partly drawn) [(3S)-3-{[2-(3-benzyl-5-methyl-2-oxopyridin-1(2H)-yl)hexanoyl]amino}-3-(3,5-dimethylphenyl)propanoic acid]",7.28,
CCCCC(C(=O)N[C@@H](CC(=O)O)c1cccc(OC(C)C)c1)n1cc(C)cc(Cc2ccccc2OCC)c1=O (stereo partly drawn) [(3S)-3-({2-[3-(2-ethoxybenzyl)-5-methyl-2-oxopyridin-1(2H)-yl]hexanoyl}amino)-3-(3-isopropoxyphenyl)propanoic acid],7.72,
CCCCC(C(=O)N[C@@H](CC(=O)O)c1cccc(OCC)c1)n1cc(C)cc(Cc2ccccc2)c1=O (stereo partly drawn) [(3S)-3-{[2-(3-benzyl-5-methyl-2-oxopyridin-1(2H)-yl)hexanoyl]amino}-3-(3-ethoxyphenyl)propanoic acid],7.46,
"CCCCC(C(=O)N[C@@H](CC(=O)O)c1cccc(OC(C)C)c1)n1cc(C)cc(Cc2c(Cl)cc(Cl)cc2OC)c1=O (stereo partly drawn) [(3S)-3-({2-[3-{[2,4-dichloro-6-(methyloxy)phenyl]methyl}-5-methyl-2-oxo-1(2H)-pyridinyl]hexanoyl}amino)-3-{3-[(1-methylethyl)oxy]phenyl}propanoic acid]",6.56,
"CCCCC(C(=O)N[C@@H](CC(=O)O)c1ccc2c(c1)OCO2)n1cc(C)cc(Cc2ccccc2Cl)c1=O (stereo partly drawn) [(3S)-3-(1,3-benzodioxol-5-yl)-3-({2-[3-[(2-chlorophenyl)methyl]-5-methyl-2-oxo-1(2H)-pyridinyl]hexanoyl}amino)propanoic acid]",,pIC50 (Table 3): 8.00
CCCC[C@@H](C(=O)N[C@@H](CC(=O)O)c1ccc2c(c1)OCO2)n1cc(C)cc(Cc2ccccc2)c1=O [Compound 10],,pIC50 (Table 1): 8.52
"CCCC[C@@H](C(=O)N[C@@H](CC(=O)O)c1ccc2c(c1)OCO2)N1CCC(c2cccs2)N(Cc2cccs2)C1=O (stereo partly drawn) [(3S)-3-(1,3-benzodioxol-5-yl)-3-(((2S)-2-(2-oxo-4-(2-thienyl)-3-(2-thienylmethyl)tetrahydro-1(2H)-pyrimidinyl)hexanoyl)amino)propanoic acid]",,"inhibition at 100 µM (Ramos, Table 2, compound at a concentration of 100 μM, read-out: % A (percent inhibition of cell adhesion)): 100%; pIC50 (Table 2): 7.30"
"CCCCC(C(=O)N[C@@H](CC(=O)O)c1cc(OC)c(OC)c(OC)c1)n1cc(C)cc(Cc2ccccc2)c1=O (stereo partly drawn) [(3S)-3-{]2-(3-benzyl-5-methyl-2-oxopyridin-1(2H)-yl)hexanoyl]amino}-3-(3,4,5-trimethoxyphenyl)propanoic acid]",7.48,
"CCCCC(C(=O)N[C@@H](CC(=O)O)c1cc(C)c(OC)cc1C)n1cc(C)cc(Cc2ccccc2)c1=O (stereo partly drawn) [(3S)-3-{[2-(3-benzyl-5-methyl-2-oxopyridin-1(2H)-yl)hexanoyl]amino}-3-(4-methoxy-2,5-dimethylphenyl)propanoic acid]",6.55,
CCCCC(C(=O)N[C@@H](CC(=O)O)c1ccc2cc(OC)ccc2c1)n1cc(C)cc(Cc2ccccc2)c1=O (stereo partly drawn) [(3S)-3-{[2-(3-benzyl-5-methyl-2-oxopyridin-1(2H)-yl)hexanoyl]amino}-3-(6-methoxy-2-naphthyl)propanoic acid],7.40,

# Continued, in another order:
pIC50 (Table 4),Structure (SMILES),also measured
8.30,CCCCC(C(=O)N[C@@H](CC(=O)O)c1cccc(OC(C)C)c1)n1cc(C)cc(Cc2ccccc2Cl)c1=O (stereo partly drawn) [(3S)-3-({2-[3-(2-chlorobenzyl)-5-methyl-2-oxopyridin-1(2H)-yl]hexanoyl}amino)-3-(3-isopropoxyphenyl)propanoic acid],
7.52,"CCCCC(C(=O)N[C@@H](CC(=O)O)c1ccc2c(c1)OCO2)n1cccc(Cc2ccccc2)c1=O (stereo partly drawn) [(3S)-3-(1,3-benzodioxol-5-yl)-3-{[2-(3-benzyl-2-oxopyridin-1(2H)-yl)hexanoyl]amino}propanoic acid]",
7.17,"CCCCC(C(=O)N[C@@H](CC(=O)O)c1cccc(OC(C)C)c1)n1cc(C)cc(Cc2cccc(Cl)c2Cl)c1=O (stereo partly drawn) [(3S)-3-({2-[3-[(2,3-dichlorophenyl)methyl]-5-methyl-2-oxo-1(2H)-pyridinyl]hexanoyl}amino)-3-{3-[(1-methylethyl)oxy]phenyl}propanoic acid]",
6.46,CCCCC(C(=O)N[C@@H](CC(=O)O)c1ccccc1)n1cc(C)cc(Cc2cccc3ccccc23)c1=O (stereo partly drawn) [(3S)-3-({2-[5-methyl-3-(1-naphthalenylmethyl)-2-oxo-1(2H)-pyridinyl]hexanoyl}amino)-3-phenylpropanoic acid],
7.89,CCCCC(C(=O)N[C@@H](CC(=O)O)c1cccc(F)c1)n1cc(C)cc(Cc2ccccc2)c1=O (stereo partly drawn) [(3S)-3-(3-fluorophenyl)-3-({2-[5-methyl-2-oxo-3-(phenylmethyl)-1(2H)-pyridinyl]hexanoyl}amino)propanoic acid],
6.70,"CCCC[C@@H](C(=O)N[C@@H](CC(=O)O)c1ccc2c(c1)OCO2)n1cc(C)c(O)c(Cc2ccccc2)c1=O [(3S)-3-(1,3-benzodioxol-5-yl)-3-{[(2S)-2-(3-benzyl-4-hydroxy-5-methyl-2-oxopyridin-1(2H)-yl)hexanoyl]amino}propanoic acid]",
8.30,CCCCC(C(=O)N[C@@H](CC(=O)O)c1cccc(OC(C)C)c1)n1cc(C)cc(Cc2ccccc2C)c1=O (stereo partly drawn) [(3S)-3-{3-[(1-methylethyl)oxy]phenyl}-3-({2-[5-methyl-3-[(2-methylphenyl)methyl]-2-oxo-1(2H)-pyridinyl]hexanoyl}amino)propanoic acid],
7.92,CCCCC(C(=O)N[C@@H](CC(=O)O)c1ccccc1)n1cc(C)cc(Cc2ccccc2Cl)c1=O (stereo partly drawn) [(3S)-3-({2-[3-(2-chlorobenzyl)-5-methyl-2-oxopyridin-1(2H)-yl]hexanoyl}amino)-3-phenylpropanoic acid],
6.56,"CCCCC(C(=O)N[C@@H](CC(=O)O)c1cccc(OC(C)C)c1)n1cc(C)cc(Cc2c(Cl)cccc2Cl)c1=O (stereo partly drawn) [(3S)-3-({2-[3-(2,6-dichlorobenzyl)-5-methyl-2-oxopyridin-1(2H)-yl]hexanoyl}amino)-3-(3-isopropoxyphenyl)propanoic acid]",

# Reference: patent US20030199692A1, “Propanoic acid derivatives that inhibit the binding of integrins to their receptors” (priority 1999, published 2003)
